Assays:
[1] = tested on: Saos-2 cells; assay: MTT cell viability / cytotoxicity assay, Saos-2 cells; format: cell-based; settings: MTT assay and clonogenic assay
Procedure: (§1) Cells were plated in flat-bottom 96-well plates at a density of 3 × 10^3 cells per well. After 12 h of cell attachment, the cell culture medium was replaced with 100 μL of pre-warmed media containing the compounds at different concentrations. After 24–72 h of incubation, cell proliferation was assessed by the MTT assay. A fresh mixture of 10 μL of thiazolyl blue tetrazolium bromide (MTT) and 90 μL of medium were freshly added to each well. After incubation for 4 h, the medium was gently removed. The formazan crystals that formed were dissolved in 110 μL of DMSO, and the absorbance was subsequently measured with a plate reader (Perkin Elmer) at 490 nm. EC50 values were calculated using Origin software. To measure the cytotoxicity of 2, HeLa cells, HUVECs, Saos-2 cells and CCC-HEH-2 cells were incubated with 100 μL of 1–500 μM 2 for 24 h, and then, cell viability was determined. To measure the cytotoxicity of TCO-Dox or Dox, HeLa cells, HUVECs, Saos-2 cells or CCC-HEH-2 cells were incubated with 200 μL of 0.001–10 μM TCO-Dox or Dox for 72 h, and the cell viability was determined. To determine the cytotoxicity of activated Dox, HeLa cells, HUVECs, Saos-2 cells or CCC-HEH-2 cells were pre-incubated with 100 μL of 500 μM 2 for 6 h, and then, 2 was removed and 200 μL of 0.0001–10 μM TCO-Dox was added for 72 h of incubation, and cell viability was determined. […]
Prodrug activation efficacy in cells: Cells were plated on flat bottom 96-well plates at a density of 3x10^3 cells per well. After 12 h attachment, cells were incubated with 100 µL 500 µM of 2 for 6 h before removing 2 and the addition of 200 µL 0.0001-10 µM of TCO-Dox. Cells were further incubated for 72 h before measuring the viability by the MTT […]
Clonogenic assay of cells in vitro: Clonogenic assay was performed according to the standard protocol.6 2×10^5 attached cells were treated with 500 µM of 2 for 6 h in culture dishes. Cells were then detached, re-suspended in cultural medium and counted accurately. The cell suspension was diluted into the desired seeding concentration and cells were seeded in 6-well plates at a density of 200 cells per well for CCC-HEH-2 and 400 cells per well for HeLa, Saos-2 and HUVECs. After incubation for 10 days, the cultural medium was removed and cells were rinsed carefully with PBS. 2 mL of a mixture of 6.0% (vol/vol) glutaraldehyde and 0.5% (wt/vol) crystal violet was added and kept for 30 min.
The glutaraldehyde crystal violet mixture was removed carefully. The colonies were rinsed with water and dried in normal air at room temperature. The number of the colonies was counted using a stereomicroscope.
When untreated cells are plated as a single-cell suspension at low densities, they will grow to colonies. The plating efficiency (PE) is the ratio of the number of colonies to the […]
(Supplementary Equation 1)
The number of colonies that arise after treatment of cells, expressed in terms of PE, is called the surviving fraction (SF): […]

[2] = MTT cell viability / cytotoxicity assay, HeLa cells; format: cell-based; settings: human; 500 μM 2, 24 h, MTT
Procedure: as §1, with “[…],” for “Saos-2 cells or CCC-HEH-2 cells were pre-incubated with 100 μL of 500 μM 2 for 6 h,”
Prodrug activation efficacy in cells: Cells were plated on flat bottom 96-well plates at a
density of 3x10^3 cells per well. After 12 h attachment, cells were incubated with 100 µL
500 µM of 2 for 6 h before removing 2 and the addition of 200 µL 0.0001-10 µM of […]

Structure (SMILES): Cc1nnc(-c2ccc(CC(=O)NCCCCC(NC(=O)Cc3ccc4ccccc4c3)C(=O)NC(Cc3ccc(OP(=O)(O)O)cc3)C(=O)NC(Cc3ccccc3)C(=O)O)cc2)nn1 (centres unmarked) [compound 2, NapK(Tz)YpF]
- cytotoxicity of 2 against Saos-2 cells [1]: toxic to Saos-2 cells to some extent
- viability at 24 h, 500 μM [2]: > 85%

— publication PMC6261997, “Synergistic enzymatic and bioorthogonal reactions for selective prodrug activation in living systems” (Nature Communications, 2018)
